In patent publication US20240344241A1, “PROTEINACEOUS MOLECULES AND USES THEREFOR” (THE UNIVERSITY OF QUEENSLAND, priority 2021, published 2024):
Bridge positions count the residues as written; N and C are the ends. Peptide text beside a SMILES is read from it.

How the values were obtained:
Human β-FXIIa [1] = biological target: T1, Human β-FXIIa (Homo sapiens, UniProt P00748); assay: FXIIa competitive inhibition assay, fluorescent substrate Boc-QGR-MCA; type: biochemical
T1 construct: Human β-FXIIa was obtained from Molecular Innovations, together with human FXa, human FXIa, human α-thrombin, and human plasma kallikrein; purchased Molecular Innovations; host or cells: purified from human plasma
Source text: Cyclic [I7F]MCoFx1 (also referred to as cyclic MCoFx6) was synthesized using solid phase peptide synthesis ([[…]] [SEQ ID NO: 97]). For this inhibitor, Tyr33 was mutated back to serine as per the original mRNA display screen (FIG. 1). Cyclic MCoFx6 was screened using a competitive inhibition assay, with the substrate being changed from a colorimetric substrate (Ac-QRFR-pNA in the data of Tables 7 and 10) to a fluorescent substrate (Boc-QGR-MCA) to allow the assay to be run with a lower concentration of enzyme. The assay was performed as described for Examples 2 and 3, except that the FXIIa concentration was 0.5 nM and the substrate concentration was 50 μM (KM=187 μM).
The new variants were screened using competitive inhibition assays, with the substrate being changed from a colorimetric substrate (Ac-QRFR-pNA in the data of Tables 7 and 10) to a fluorescent substrate (Boc-QGR-MCA) to allow the assay to be run with a lower concentration of enzyme. Assays were performed as described for Examples 2 and 3, except that the FXIIa concentration was 0.5 nM and the substrate concentration was 50 μM (KM=187 μM). […] The effect of amino acid substitutions within loop 2 (Arg12, Arg13), loop 5 (Ala25, Arg27) or loop 6 (Asp34) on the activity of cyclic MCoFx7 against FXIIa was determined (refer to Table 14). […] Additionally, mutating Arg to Glu (reversing the side chain charge) only led to two-fold weaker activity. The adjacent residue Arg13 could also be mutated to Lys with no change in activity. Within loop 5, mutating Ala25 to Lys produced a slight gain in activity, whereas the Ala to Pro mutation led to a slight decrease in activity. Both mutations at Arg27 led to losses in activity in the order of two-fold (His) or 3.2-fold (Gly).
(§1) The activity of acyclic and cyclic MCoFx1-5 and analogues thereof was assessed in competitive inhibition assays, as previously described in Swedberg et al. (2016) J Med Chem, 59: 7287-7292. Human β-FXIIa was obtained from Molecular Innovations, together with human FXa, human FXIa, human α-thrombin, and human plasma kallikrein. Human cationic trypsin and human plasmin were obtained from Sigma-Aldrich, and recombinant human matriptase was sourced from R&D Systems. Recombinant human urokinase (uPA) and recombinant human tissue plasminogen activator (tPA) were expressed in Expi293 cells, as previously described in Li et al. (2019) Chembiochem, 20: 46-50. FXIIa inhibition assays were performed in clear, low-binding 96-well plates using 250 μL (final volume) of assay buffer (0.1 M Tris-HCl pH 8.0, 0.1 M NaCl, 10 mM CaCl2 and 0.005% Triton X-100). Inhibitors were serially diluted and incubated with 10 nM FXIIa at room temperature to reach equilibrium. After adding 100 μM Ac-QRFR-pNA substrate (KM=162 μM), enzymatic activity was measured by monitoring release of the pNA moiety using a TECAN infinite M1000 Pro plate reader (A=405 nm, reading interval, 10 s; assay time course, 7 min). Assays were conducted in three times in duplicate. Substrate kinetic constants (Michaelis-Menten) and inhibition constants (Morrison K) were determined by non-linear regression using Prism 7 (GraphPad). Selectivity assays with off-target proteases were performed in a similar way, except that different concentrations of enzyme and substrate were used, as indicated in Table 16. For assays using a fluorescent substrate (peptide-4-methylcoumaryl-7-amide, MCA), black low-binding 96-well plates were used and activity was measured using a TECAN infinite M1000 pro plate reader (λex 360 nm, λem 460 nm, reading interval, 30 s; assay time course, 5-30 min).

human whole blood = assay: Activated clotting time (ACT) in human whole blood; conditions: 10 μM, human whole blood
Procedure: (§2) The anticoagulant activity of cyclic MCoFx7 was determined in human whole blood using two assays: activated clotting time (ACT) and rotational thromboelastometry (ROTEM). In ACT assays, the clotting time (y-axis) was increased in a dose-dependent manner from the control (124 s), reaching 223 s with 20 μM MCoFx7. […] Anticoagulant activity was verified by thromboelastometry (TEM) that was measured after activation of the intrinsic pathway (INTEM) (refer to FIG. 16). […] By comparison, a single concentration of cyclic [A25P]MCoFx7 (10 μM) produced a clotting time of 500 s, similar to cyclic MCoFx7 at 10 μM (469 s).
(§3) Activated clotting time (ACT) was measured in fresh whole blood using celite tubes with the Hemochron 401 coagulation analyzer (Soma Technology, Bloomfield, CT, USA). Whole blood clot formation was recorded by ROTEM® Thromboelastometry (Haemoview Diagnostics, Brisbane, Australia) using INTEM (contact factor-initiated coagulation) and HEPTEM (contact factor-initiated coagulation with heparinase) activating reagents according to the manufacturer's instructions.

[2] = tested on: human whole blood, intrinsic pathway (INTEM); assay: Rotational thromboelastometry INTEM in human whole blood; conditions: 10 μM
Procedure: as §2, §3

Human β-FXIIa [3] = biological target: T1, Human β-FXIIa; assay: FXIIa competitive inhibition assay, colorimetric substrate Ac-QRFR-pNA; type: biochemical
Outline: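 Enzyme and substrate levels differ per protease. Inhibitor–enzyme mixtures reach equilibrium at room temperature at pH 8.0 with 10 mM CaCl2 before substrate addition; continuous absorbance (405 nm) or fluorescence (360/460 nm) readout gives Morrison Ki.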

Human trypsin = biological target: T2, Human trypsin (Homo sapiens, UniProt P07477); assay: Trypsin competitive inhibition assay; type: biochemical
T2 construct: purchased Sigma-Aldrich; host or cells: purified from human tissue
Procedure: as §1

Human FXa = biological target: T3, Human FXa (Homo sapiens, UniProt P00742); assay: FXa inhibition assay; type: biochemical
T3 construct: Human β-FXIIa was obtained from Molecular Innovations, together with human FXa, human FXIa, human α-thrombin, and human plasma kallikrein; purchased Molecular Innovations; host or cells: purified from human plasma
Procedure: as §1

Human FXIa = biological target: T4, Human FXIa (Homo sapiens, UniProt P03951); assay: FXIa inhibition assay; type: biochemical
T4 construct: Human β-FXIIa was obtained from Molecular Innovations, together with human FXa, human FXIa, human α-thrombin, and human plasma kallikrein; purchased Molecular Innovations; host or cells: purified from human plasma
Procedure: as §1

Human thrombin = biological target: T5, Human thrombin (Homo sapiens, UniProt P00734); assay: Thrombin inhibition assay; type: biochemical
T5 construct: Human β-FXIIa was obtained from Molecular Innovations, together with human FXa, human FXIa, human α-thrombin, and human plasma kallikrein; purchased Molecular Innovations; host or cells: purified from human plasma
Procedure: as §1

Human plasma kallikrein = biological target: T6, Human plasma kallikrein (Homo sapiens, UniProt P03952); assay: Plasma kallikrein inhibition assay; type: biochemical
T6 construct: Human β-FXIIa was obtained from Molecular Innovations, together with human FXa, human FXIa, human α-thrombin, and human plasma kallikrein; purchased Molecular Innovations; host or cells: purified from human plasma
Procedure: as §1

Human plasmin = biological target: T7, Human plasmin (Homo sapiens, UniProt P00747); assay: Plasmin inhibition assay; type: biochemical
T7 construct: Human cationic trypsin and human plasmin were obtained from Sigma-Aldrich, and recombinant human matriptase was sourced from R&D Systems; purchased Sigma-Aldrich; host or cells: purified from human plasma
Procedure: as §1

Rec. human uPA = biological target: T8, Rec. human uPA (Homo sapiens, UniProt P00749); assay: uPA inhibition assay; type: biochemical
T8 construct: made in house; host or cells: Expi293 cells
Procedure: as §1

Rec. human tPA = biological target: T9, Rec. human tPA (Homo sapiens, UniProt P00750); assay: tPA inhibition assay; type: biochemical
T9 construct: made in house; host or cells: Expi293 cells
Procedure: as §1

Rec. human matriptase = biological target: T10, Rec. human matriptase (Homo sapiens, UniProt Q9Y5Y6); assay: Matriptase inhibition assay; type: biochemical
T10 construct: purchased R&D Systems
T10 sequence (Q9Y5Y6 615-855 limits assumed): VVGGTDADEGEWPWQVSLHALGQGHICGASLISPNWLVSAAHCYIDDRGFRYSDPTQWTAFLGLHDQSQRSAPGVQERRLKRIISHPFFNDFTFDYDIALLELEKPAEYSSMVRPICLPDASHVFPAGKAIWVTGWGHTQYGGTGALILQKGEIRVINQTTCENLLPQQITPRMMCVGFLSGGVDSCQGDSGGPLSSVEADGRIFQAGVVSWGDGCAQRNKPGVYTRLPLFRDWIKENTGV
Procedure: as §1

[4] = tested on: clotting via the intrinsic pathway; assay: Activated partial thromboplastin time (aPTT) assay in human plasma; type: biochemical
Source text: (§4) Citrated, platelet-poor plasma samples from healthy adults were collected, prepared, and stored using previously established collection protocols, such as in Zdenek et al. (2019) Toxicol in Vitro, 58: 97-109.
(§5) Standard coagulation assays were used to determine the effect of the inhibitors on the clotting time of human plasma. Activated partial thromboplastin time (aPTT) uses a Kaolin reagent (clay) to activate the intrinsic/contact pathway of the coagulation cascade, whereas prothrombin time (PT) uses Neoplastine (lyophilized thromboplastin prepared from rabbit cerebral tissue) to activate the extrinsic/tissue-factor pathway of the coagulation cascade. A minor adjustment was made to both tests (addition of 25 μL inhibitor or buffer; refer to Table 17) to accommodate the addition of an inhibitor without changing the total volume (and therefore relative ratios of additives) of the assay. Concentrations of inhibitor are reported as the concentration at the point of incubation in the assay, i.e. not taking into account the addition of the start reagent (calcium for aPTT, or Neoplastine for PT).
(§6) Clotting time (seconds) of plasma was automatically measured using a STA-R Max® analyzer (Stago, Asnieres sur Seine, France). Measurements were conducted using a viscosity-based (mechanical) detection system, whereby opposing magnets oscillate a small metal spherical pellet inside the test cuvette (250 μL total volume) until a clot is formed. Dilution of the inhibitor in Owren-Koller (OK) buffer for dose-response curves was performed automatically by the machine. Reagents were kept at 15-19° C. in the machine during experimentation and otherwise stored at 4° C. All tests were performed in triplicate.

[5] = tested on: clotting via the extrinsic pathway; assay: Prothrombin time (PT) assay in human plasma; type: biochemical; conditions: at 10 μM
Source text: as §4, §5, §6

Stability in human serum = conditions: human serum, 37° C., up to 24 h
Procedure: Briefly, peptides were incubated at a final concentration of 30 μM in human serum (human male AB serum, Sigma-Aldrich) at 37° C. for 0, 1, 12 and 24 h. The reaction was stopped at designated times, with the serum proteins being denatured by addition of two volumes of acetonitrile (v/v). The samples were then spun at 17,000 g for 10 min and the amount of peptide in the supernatant was quantified using analytical HPLC. The percentage of peptide remaining at 1, 12 and 24 h was calculated using the area of the serum-treated peptide peak from 0 h as 100%.

T4 sequence (P03951 388-625 limits assumed): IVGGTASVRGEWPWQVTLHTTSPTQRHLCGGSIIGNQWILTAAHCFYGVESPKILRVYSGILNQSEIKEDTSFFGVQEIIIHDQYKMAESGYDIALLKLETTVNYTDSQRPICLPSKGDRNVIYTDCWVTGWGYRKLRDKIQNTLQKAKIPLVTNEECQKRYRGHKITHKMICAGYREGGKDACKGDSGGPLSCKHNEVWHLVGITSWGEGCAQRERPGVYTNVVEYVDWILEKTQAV
T4 sequence (P03951 19-387 partner limits assumed): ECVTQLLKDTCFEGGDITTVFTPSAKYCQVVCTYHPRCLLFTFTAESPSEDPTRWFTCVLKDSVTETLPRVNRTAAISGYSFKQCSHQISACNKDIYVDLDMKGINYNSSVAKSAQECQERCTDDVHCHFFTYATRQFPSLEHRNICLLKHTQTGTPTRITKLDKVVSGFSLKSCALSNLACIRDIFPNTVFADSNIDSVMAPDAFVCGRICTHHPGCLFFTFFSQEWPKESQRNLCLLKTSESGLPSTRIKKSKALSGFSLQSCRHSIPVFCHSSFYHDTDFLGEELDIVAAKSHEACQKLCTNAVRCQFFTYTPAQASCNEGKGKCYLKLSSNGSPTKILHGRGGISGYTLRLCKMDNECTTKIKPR
T3 sequence (P00742 235-488 limits assumed): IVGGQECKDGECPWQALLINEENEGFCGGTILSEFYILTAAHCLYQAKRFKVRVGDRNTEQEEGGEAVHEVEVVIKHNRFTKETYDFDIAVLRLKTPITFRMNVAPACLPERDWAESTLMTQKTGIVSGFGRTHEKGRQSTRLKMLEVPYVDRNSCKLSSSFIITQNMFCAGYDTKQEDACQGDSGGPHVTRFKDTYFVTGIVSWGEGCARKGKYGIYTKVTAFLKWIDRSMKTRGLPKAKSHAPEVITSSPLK
T3 sequence (P00742 41-179 partner limits assumed): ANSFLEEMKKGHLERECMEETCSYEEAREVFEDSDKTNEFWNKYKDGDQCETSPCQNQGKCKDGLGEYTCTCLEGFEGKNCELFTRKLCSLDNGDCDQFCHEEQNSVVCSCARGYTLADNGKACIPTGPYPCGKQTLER
T7 sequence (P00747 581-810 limits assumed): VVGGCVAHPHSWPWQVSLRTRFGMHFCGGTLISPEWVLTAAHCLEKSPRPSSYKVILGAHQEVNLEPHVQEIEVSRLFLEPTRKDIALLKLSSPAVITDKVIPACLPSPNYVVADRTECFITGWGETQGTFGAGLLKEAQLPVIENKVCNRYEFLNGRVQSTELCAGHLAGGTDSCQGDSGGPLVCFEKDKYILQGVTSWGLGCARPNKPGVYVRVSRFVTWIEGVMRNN
T7 sequence (P00747 97-580 partner limits assumed): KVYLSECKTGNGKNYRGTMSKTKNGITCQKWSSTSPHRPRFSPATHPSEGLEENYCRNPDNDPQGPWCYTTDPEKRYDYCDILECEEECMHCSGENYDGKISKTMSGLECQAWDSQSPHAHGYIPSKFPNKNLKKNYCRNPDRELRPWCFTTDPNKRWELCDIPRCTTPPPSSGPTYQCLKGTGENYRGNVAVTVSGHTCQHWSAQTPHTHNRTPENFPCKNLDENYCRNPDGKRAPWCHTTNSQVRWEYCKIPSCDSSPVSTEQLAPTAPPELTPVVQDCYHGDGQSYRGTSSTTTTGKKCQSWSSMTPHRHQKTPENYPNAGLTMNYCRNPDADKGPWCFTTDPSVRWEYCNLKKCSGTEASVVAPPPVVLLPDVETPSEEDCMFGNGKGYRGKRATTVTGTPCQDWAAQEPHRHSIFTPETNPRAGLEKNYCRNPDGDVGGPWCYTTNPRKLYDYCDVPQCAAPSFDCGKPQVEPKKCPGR
T6 sequence (P03952 391-638 limits assumed): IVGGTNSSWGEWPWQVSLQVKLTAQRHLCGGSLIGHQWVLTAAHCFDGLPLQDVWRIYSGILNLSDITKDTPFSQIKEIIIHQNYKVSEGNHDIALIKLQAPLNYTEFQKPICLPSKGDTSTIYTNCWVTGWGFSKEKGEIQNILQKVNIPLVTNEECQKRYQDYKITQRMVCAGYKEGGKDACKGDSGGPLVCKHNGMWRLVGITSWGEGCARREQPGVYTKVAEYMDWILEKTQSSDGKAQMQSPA
T6 sequence (P03952 20-390 partner limits assumed): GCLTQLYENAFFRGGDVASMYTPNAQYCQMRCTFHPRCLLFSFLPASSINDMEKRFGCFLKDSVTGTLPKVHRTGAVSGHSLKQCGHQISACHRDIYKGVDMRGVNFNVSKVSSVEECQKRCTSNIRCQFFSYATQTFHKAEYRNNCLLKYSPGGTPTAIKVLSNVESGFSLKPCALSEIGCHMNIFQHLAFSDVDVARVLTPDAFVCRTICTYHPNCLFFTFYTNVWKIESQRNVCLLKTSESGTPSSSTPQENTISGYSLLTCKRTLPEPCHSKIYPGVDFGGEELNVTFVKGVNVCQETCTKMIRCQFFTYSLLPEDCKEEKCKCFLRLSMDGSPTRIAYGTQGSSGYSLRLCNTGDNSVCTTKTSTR
T1 sequence (P00748 373-615 limits assumed, other chains not shown): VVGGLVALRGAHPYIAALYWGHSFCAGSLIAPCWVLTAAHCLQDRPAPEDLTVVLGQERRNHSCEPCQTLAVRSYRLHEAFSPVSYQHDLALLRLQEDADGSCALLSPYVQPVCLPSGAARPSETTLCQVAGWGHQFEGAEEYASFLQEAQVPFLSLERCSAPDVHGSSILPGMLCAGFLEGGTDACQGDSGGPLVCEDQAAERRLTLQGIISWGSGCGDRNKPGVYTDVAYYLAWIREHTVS
T9 sequence (P00750 36-562): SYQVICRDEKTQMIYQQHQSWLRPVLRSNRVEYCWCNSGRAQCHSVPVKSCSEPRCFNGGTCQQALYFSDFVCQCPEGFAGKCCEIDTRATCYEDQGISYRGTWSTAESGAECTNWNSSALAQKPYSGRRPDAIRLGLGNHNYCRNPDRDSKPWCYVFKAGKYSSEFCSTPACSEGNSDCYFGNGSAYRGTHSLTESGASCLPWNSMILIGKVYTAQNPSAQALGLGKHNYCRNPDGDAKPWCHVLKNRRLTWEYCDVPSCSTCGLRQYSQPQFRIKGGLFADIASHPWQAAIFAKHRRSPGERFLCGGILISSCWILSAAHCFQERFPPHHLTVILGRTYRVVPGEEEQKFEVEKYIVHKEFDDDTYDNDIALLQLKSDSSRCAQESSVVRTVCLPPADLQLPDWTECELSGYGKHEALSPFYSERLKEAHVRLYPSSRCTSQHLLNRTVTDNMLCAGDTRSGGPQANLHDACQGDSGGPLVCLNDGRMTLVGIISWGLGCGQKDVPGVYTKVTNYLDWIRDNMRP

SMILES: CC[C@H](C)[C@@H]1NC(=O)CNC(=O)CNC(=O)[C@H](CC(=O)O)NC(=O)[C@H](CO)NC(=O)CNC(=O)[C@H](CO)NC(=O)CNC(=O)[C@@H]2CSSC[C@@H]3NC(=O)[C@H](CC(=O)O)NC(=O)[C@H](CO)NC(=O)[C@H](CC(=O)O)NC(=O)[C@H](CCCNC(=N)N)NC(=O)[C@H](CCCNC(=N)N)NC(=O)[C@@H]4CSSC[C@H](NC(=O)[C@H]([C@@H](C)CC)NC(=O)[C@H](CSSC[C@H](NC1=O)C(=O)N1CCC[C@H]1C(=O)N[C@@H](CCCNC(=N)N)C(=O)N[C@@H]([C@@H](C)CC)C(=O)NCC(=O)N[C@@H](CCCNC(=N)N)C(=O)N[C@@H](CC(C)C)C(=O)N4)NC(=O)[C@H](C)NC(=O)CNC(=O)[C@@H]1CCCN1C3=O)C(=O)N[C@@H](CCCNC(=N)N)C(=O)N1CCC[C@H]1C(=O)N[C@@H]([C@@H](C)O)C(=O)N[C@@H](CCCNC(=N)N)C(=O)N[C@@H](Cc1ccccc1)C(=O)N2 [Cyclic [A25P]MCoFx7] (cyclo(ACICRPTRFCGSGSDGGICPRIGRLCRRDSDCPG); disulfide 2-19, 4-26, 10-32)
- Ki (Human β-FXIIa [1]): 0.093 ± 0.005 nM
- ACT clotting time (human whole blood): 186 s
- INTEM clotting time [2]: 500 s

SMILES: CC[C@H](C)[C@@H]1NC(=O)CNC(=O)CNC(=O)[C@H](CC(=O)O)NC(=O)[C@H](CO)NC(=O)CNC(=O)[C@H](CO)NC(=O)CNC(=O)[C@@H]2CSSC[C@@H]3NC(=O)[C@H](CC(=O)O)NC(=O)[C@H](CO)NC(=O)[C@H](CC(=O)O)NC(=O)[C@H](CCCNC(=N)N)NC(=O)[C@H](CCCNC(=N)N)NC(=O)[C@@H]4CSSC[C@H](NC(=O)[C@H]([C@@H](C)CC)NC(=O)[C@H](CSSC[C@H](NC1=O)C(=O)N1CCC[C@H]1C(=O)N[C@@H](CCCNC(=N)N)C(=O)N[C@@H]([C@@H](C)CC)C(=O)NCC(=O)N[C@@H](CCCNC(=N)N)C(=O)N[C@@H](CC(C)C)C(=O)N4)NC(=O)[C@H](C)NC(=O)CNC(=O)[C@@H]1CCCN1C3=O)C(=O)N[C@@H](CCCNC(=N)N)C(=O)NCC(=O)N[C@@H](CC(N)=O)C(=O)NCC(=O)N[C@@H](Cc1ccc(O)cc1)C(=O)N2 [cMCoTI-fxL1] (cyclo(ACICRGNGYCGSGSDGGICPRIGRLCRRDSDCPG); disulfide 2-19, 4-26, 10-32)
- Ki (Human β-FXIIa [3]): 0.69 nM
- Ki (Human trypsin): 996 nM
- IC50 (Human FXa): > 5000 nM
- inhibition at 5 µM (Human FXa; read-out: percent inhibition FXa): 0%
- IC50 (Human FXIa): > 5000 nM
- inhibition at 5 µM (Human FXIa; read-out: percent inhibition FXIa): 1%
- IC50 (Human thrombin): > 5000 nM
- inhibition at 5 µM (Human thrombin; read-out: percent inhibition Thrombin): 1%
- IC50 (Human plasma kallikrein): > 5000 nM
- inhibition at 5 µM (Human plasma kallikrein; read-out: percent inhibition Plasma kallikrein): 0%
- IC50 (Human plasmin): > 5000 nM
- inhibition at 5 µM (Human plasmin; read-out: percent inhibition Plasmin): 19%
- IC50 (Rec. human uPA): > 5000 nM
- inhibition at 5 µM (Rec. human uPA; read-out: percent inhibition uPA): 0%
- IC50 (Rec. human tPA): > 5000 nM
- inhibition at 5 µM (Rec. human tPA; read-out: percent inhibition tPA): 1%
- Ki (Rec. human matriptase): 2210 nM
- EC2× (concentration required to double the clotting time) [4]: 500 nM
- clotting time compared to control, PT assay [5]: No significant differences in clotting time compared to control assays
- resistance to serum proteases (in words) (Stability in human serum): highly resistant to serum proteases
